Experimental data from patent US20220387358A1, “CERAMIDE ANALOG SACLAC MODULATES SPHINGOLIPID LEVELS AND MCL-1 SPLICING TO INDUCE APOPTOSIS IN ACUTE MYELOID LEUKEMIA” (University of Virginia Patent Foundation, priority 2019, published 2022).

Assays:
[1] = test system: primary AML patient samples; assay: Colony forming assay; assay type: cell-based, human; conditions: six primary patient samples
Experimental: Cryopreserved human AML patient samples were thawed and washed twice with RPMI 1640 supplemented with 2% heat inactivated fetal bovine serum (FBS). After washes, cells were cultured in triplicate in 12-well plates at a density of 0.1 to 2×10^5 cells per well in Human Methylcellulose Complete Media (#HSC003R&D Systems, Minneapolis, Minnesota, United States of America). Plating densities were selected for each case to yield colony outgrowth of 20-100 colonies per well. The desired cell number and dose of SACLAC or DMSO was added to the culture media and dispensed to multi-well plates. Colonies were propagated for 10-14 days and blast colonies (>20 cells) were counted in a blinded manner under the light microscope.

normal CD34+ cells = assay: Cell viability of normal samples ([…]-GLO); assay type: cell-based; conditions: Homo sapiens; CD34+ (n=4); 24 hours
Description: (§1) Healthy donor samples: PBMCs from healthy donors were enriched using the Ficoll-Paque gradient separation method. CD34+PBMCs mobilized with G-CSF were obtained from the University of Virginia Health System Blood Bank (Charlottesville, Va., United States of America). CD34+ cells were isolated from PBMCs with a Human CD34 MicroBead Kit (#130-046, Miltenyi Biotec, Bergisch Gladbach, Germany) using the autoMACS Pro Separator (#130-092-545, Miltenyi Biotec, Bergisch Gladbach, Germany). For cell viability, cell lines were plated at 2.5×10^4 cells per well in a 96-well plate and treated with […] or DMSO vehicle (0.4% of total volume) for the indicated time points and doses. […] Conversion of MTS to formazan product was measured by absorbance at 490 nm using a BioTek Cytation 3 plate reader (BioTeck, Winooski, Vt., United States of America). Absorbance was normalized to DMSO control, which was defined as 100% viability. […] After 15 minutes, luminescence was read on a BioTek Cytation 3 plate reader (BioTek, Winooski, Vt., United States of America). Absorbance was normalized to DMSO control, which was defined as 100% viability.

[2] = test system: PBMCs from healthy donors; assay: Cell viability of normal samples ([…]-GLO); assay type: cell-based; conditions: Homo sapiens, PBMC; PBMCs (n=6); 24 hours
Description: as §1

[3] = test system: MCL-1S transcript in OCI-AML2 cells; assay: RT-qPCR of MCL-1S transcript; assay type: cell-based, human; conditions: 5 μM SACLAC; 6 hours
Experimental: Cells were seeded at 2.5×10^5 cells per ml in 6-well plates and treated with DMSO or SACLAC for six hours. Cells were harvested and resuspended in TRIzol reagent (#15596026, Invitrogen, Carlsbad, Calif., United States of America). RNA was isolated using Direct-zol RNA Miniprep Plus (#R2072, Zymo Research, Irvine, Calif., United States of America) according to the manufacturer's protocol. RNA was quantified using the Take3 microplate and the pre-programmed RNA quantification protocol on the Gen5 software for the Cytation 3 plate reader (BioTek, Winooski, Vt., United States of America). DNase treatment and reverse transcription were done using the iScript gDNA Clear cDNA Synthesis Kit (#1725035, Bio-Rad Laboratories, Hercules, Calif., United States of America) in accordance with the manufacturer's protocol. The qPCR reaction contained iTaq Universal SYBR Green (#1725122, Bio-Rad Laboratories, Hercules, Calif., United States of America), 140 ng cDNA and primers specific for HPRT (#100-25636, Bio-Rad Laboratories, Hercules, Calif., United States of America), B2M (#100-25636, Bio-Rad Laboratories, Hercules, Calif., United States of America) and MCL-1S (Eurofins (Luxembourg); forward, 5′-[…]-3′ (SEQ ID NO: 1) and reverse, 5′-[…]-3′ (SEQ ID NO: 2)) (38). This primer pair specifically amplifies Mcl-1 transcript variant 2 (MCL-1S) according to BLAST analysis. […]

[4] = test system: THP-1, HL60-VCR and KG1a cell lines; assay: Western blot of SF3B1 and Mcl-1S/L in further cell lines; assay type: cell-based, human; conditions: 20 μM SACLAC; 48 hours; all three cell lines
Experimental: Cells were plated at 2.5×10^5 cells per ml in 6-well plates and treated with drug, vehicle or siRNA at the indicated doses and time points. Cells were harvested, washed with PBS and lysed prior to preparation of protein extracts for western blotting.
More particularly, cells were lysed with RIPA buffer (#R0278, Sigma, St. Louis, Mo., United States of America) containing phosphatase inhibitor cocktails 2 and 3 (Sigma #P5726, #P0044) and protease inhibitor cocktail (#P8340, Sigma, St. Louis, Mo., United States of America). Protein was quantified using a bicinchoninic acid (BCA) protein assay kit (#23225, Pierce, Waltham, Mass., United States of America). Samples were resolved on a Bolt 4-12% SDS-PAGE gel (#NW00082, ThermoFisher Scientific, Waltham, Mass., United States of America) and transferred to PVDF membrane (#170-4274, Bio-Rad Laboratories, Hercules, Calif., United States of America). Antibodies were obtained from Cell Signaling Technology (Danvers, Mass., United States of America) unless indicated otherwise. […] Quantification was done using Bio-Rad ImageLab 6.0.1 software (Bio-Rad Laboratories, Hercules, Calif., United States of America). For quantification, bands were normalized to β-actin as a loading control.

For `CCCCCCCCCCCCCCC[C@@H](O)[C@H](CO)NC(=O)CCl` [SACLAC, N-[(2S,3R)-1,3-dihydroxyoctadecan-2-yl]2-chloroacetamide], the “colony formation decreased (average)” value ([1]; 5 μM) was 32%, the “colony formation decreased (average)” value ([1]; 20 μM) was 69% and the EC50 (normal CD34+ cells) was 4 µM. For the same compound, the EC50 [2] was 7.4 µM, the MCL-1S transcript level [3] was “Increased” and the SF3B1 levels [4] was “reduced”. For the same compound, the “ratio of Mcl-1S/L” value [4] was “increased”.
